The values that follow come from patent US20140220000A1, “MHC ENGAGEMENT AND CLIP MODULATION FOR THE TREATMENT OF DISEASE” (Scott & White Healthcare, priority 2011, published 2014).

In experiment [1] the test system is WITT cells. Kind of experiment: Hemacytometer viability counts of WITT cells after CpG, MKR.4 and anti-class II treatment (Example 3). In kind it is cell-based, human. As to conditions: 24 hours after anti-class II. How it is done:
0.59*10^6 cells/mL*5 mL=[…] of WITT cells total were used. The cells were centrifuged at 1000 rpm for 5 minutes and the pellet was resuspended in 9 mL of WITT media. 1 mL of this cell suspension was added to each of […] and a culture flask. Another 2 mL of WITT media was added to each well in the 12 well plate to bring the total volume up to 3 mL. Another 9 mL was added to the T-25 culture flask to bring that total volume up to 10 mL. The plate and flask were placed in the incubator to allow adherence overnight.
(§1) CpG was administered to activate the cells and induce CLIP expression. 15 uL of 1 mg/mL CpG was added into each CpG treated well. MKR.4 was added to select wells 24 hours after cell activation. The cells were incubated with 3 uL of 5 mg/mL stock MKR.4 in DMSO for 2 hours. Then fresh media with or without Anti MHC Class II was added (5 ul/well of stock at 1 mg/mL). 24 hours after Anti MHC Class II was added to the wells viability counts were performed.

The subject of experiment [2] is CRL-5822 cells. The experiment can be described thus: Viability counts of CRL-5822 cells after CpG, MKR.4 and Anti MHC Class II treatment (Example 2). The experiment is classed as cell-based. The note with it: CpG 1 ug/mL, MKR.4 2.5 ug/mL, Anti MHC Class II 5 ug/mL, 24 hours after antibody. How it is done:
CRL-5822 were Prepared as Follows: • Removed the media from a flask of CRL-5822 using a sterile glass pipet and vacuum • Added 1.5 mL of accutase to the flask and placed in incubator for 20 minutes • Washed with 3 mL of PBS • Transferred all to a sterile 15 mL conical tube • Centrifuged for 5′ @ 1000 rpm • Removed supernatant with sterile glass pipet and vacuum • Resuspended in 3 mL of PBS • Performed a hemacytometer count indicating: 1.14*10^6 cells total of CRL-5822 cells • 1.14*10^6/8 wells+2 wells for culture maintenance=10 wells • 1.14*10^6/10 wells=[…] cells per well • Centrifuged the 3 mL of cell suspension for 5′ at 1000 rpm • Resuspended pellet in 10 mL of 10% FBS RPMI • 1 mL of this was added to 2 wells in a 12-well plate added 1 mL of fresh 10% FBS RPMI to each well to bring the total volume up to 2 mL.
(§2) 8 wells were set up for the experiment for each cell type (CRL-5822 and C57BL/6) with no treatment, with CpG, MKR.4 peptide, with MKR.4 peptide+CpG and with or without addition of purified Anti Class-II (HLA-DR,DP,DQ) treatment in the amounts listed below.
CRL-5822 • CpG:(x) (1 mg/mL stock)=(1 ug/mL) (2 mL)x=2 ul • MKR.4: (x) (5 mg/mL stock)=(2.5 ug/mL) (2 mL) x=1 ul • Anti MHC Class II: Treat at 5 ug/mL; Stock is at 1 mg/mL; (x) (1 mg/mL)=(5 ug/mL) (2 mL); x=10 μl/well
(§3) CpG was administered to activate the cells and induce CLIP expression. MKR.4 was added to select wells 24 hours after cell activation. The cells were incubated with MKR.4 for 2 hours. Then fresh media with or without Anti MHC Class II was added. 24 hours after Anti MHC Class II was added to the wells viability counts were performed.

Experiment [3] concerns H69 cells. The experiment can be described thus: Hemacytometer viability counts of H69 cells after CpG, MKR.4 and anti-class II treatment (Example 3). The experiment is classed as cell-based, human. The note with it: 24 hours after anti-class II. The protocol:
Based on cell counts 500,000 H69 cells per well were set up in a 6 well plate-4.0*10^6/2.95*10^6=1.36 mL. The 1.36 mL was added to a new 15 mL conical tube and centrifuged for 5 minutes at 1000 rpm. The pellet was resuspended in 8 mL of H69 media and 1 mL of cell suspension was added to each well. 2 mL of H69 media was added to each well to bring the total volume/well up to 3 mL and the plates were placed in an incubator.
as §1

Experiment [4] has as its system C57BL/6 splenocytes. The experiment can be described thus: Viability counts of C57BL/6 splenocytes after CpG, MKR.4 and Anti MHC Class II treatment (Example 2). In kind it is cell-based, mouse. As to conditions: CpG 5 ug/mL, MKR.4 5 ug/mL, Anti MHC Class II 5 ug/mL, 24 hours after antibody. How it is done:
C57BL/6 were Prepared as Follows: • A spleen from a C57BL/6 mouse was placed in a cell strainer in a petri dish with 6 mL of PBS • The spleen was mashed to produce a cell suspension • The PBS splenocyte cell suspension was transferred into a labeled 15 mL conical tube and centrifuged for 5 minutes at 1000 rpm • The pellet was resuspended in 1 mL of PBS • Geys was prepared to lyse the red blood cells • 7 mL of DI H20; • 0.5 mL of Geys B • 0.5 mL of Geys C • weighed out […] of NH4Cl • Mixed the […] of NH4Cl with 2 mL of Geys A • Transferred the dissolved solution to a 15 mL conical tube with the H20, Geys B, and Geys C • 3 mL of the Geys solution was added to the 1 mL of PBS cell suspension, mixed well and placed on ice for 1 minute (frequently inverted solution in tube on ice during the 1 minute) • The mixture was centrifuged for 5 minutes at 1000 rpm, washed with 5 mL of PBS, centrifuged for 5 minutes at 1000 rpm and resuspended in 10 mL of PBS • A hemacytometer count was performed: 99.0*10^6 cells total (9.9*10^6 cells/mL) plate 4*10^6 cells per well*8 wells=32 million; 32*10^6/9.9*10^6=3.23 mL of this suspension needed to obtain 32*10^6 cells • Centrifuged 3.23 mL of the suspension for 5 minutes at 1000 rpm and resuspended the pellet in 8 mL of 5% FBS RPMI • 1 mL of suspension was added to each well (12-well plate) • Added another 2 mL of 5% FBS RPMI to each well to bring the final volume up to 3 mL
as §2
CpG: (x) (1 mg/mL stock)=(5 ug/mL) (3 mL) x=15 ul
MKR.4: (x) (5 mg/mL stock)=(5 ug/mL) (3 mL) x=3 ul
Anti MHC Class II: Treat at 5 ug/mL; Stock is at 1 mg/mL; (x) (1 mg/mL)=(5 ug/mL) (3 mL); x=15 ul/well
as §3

In experiment [5] the test system is MCF7 cells. Kind of experiment: Viability counts of MCF7 cells after B-estradiol treatment (Example 5). The experiment is classed as cell-based, human. As to conditions: 10 nM B-estradiol, about 19 hours after treatment. How it is done: (§4) MCF7 (ATCC (cat# HTB-22)) and MCF7-ADR were grown in 10% FBS RPMI (Gibco RPMI 1640 media cat #21870076) supplemented with Fetal Bovine Serum, L-Glutamine, […], Hepes Buffer, Sodium Pyruvate, and Gentamicin). 1.07*10^6MCF7 cells were plated per well in 2 wells. […] ADR cells were plated per well in 2 wells. The cells were treated with B-estradiol from Sigma (Cat# E2758-250 mg, Lot#110M0138V). In order to prepare a 10 nM final concentration 27.238 mg of B-estradiol was weighed under the hood with a sterile weigh boat and spatula and dissolved in 1 mL of DMSO to make a 0.1M stock, which was then diluted twice: • 1:1000 dilution (1 ul of the 0.1M stock to 999 ul PBS) • 1:100 dilution (10 ul of the 1:000 dilution to 990 ul PBS) 20 ul of the 1:100 diluted solution was added to a final volume of 2 mL per treatment well. The MCF7 and MCF7 ADR were harvested about 19 hours after treatment. The cells were counted and viability is shown below.

The subject of experiment [6] is MCF7 ADR cells. The experiment can be described thus: Viability counts of MCF7 ADR cells after B-estradiol treatment (Example 5). As to conditions: 10 nM B-estradiol, about 19 hours after treatment. In kind it is cell-based, human. The protocol:
as §4

Experiment [7] has as its system B cells from CLIP−/− (Invariant Chain deficient) mice. The experiment can be described thus: Cell death of B cells isolated from CLIP-/- mice (Example 6, FIG. 6B). The experiment is classed as cell-based, mouse. The note with it: MKR.4 5 μg/mL, anti-MHCII 2.5 μg/mL, 24 hours. How it is done: (§5) B cells were isolated from the spleens 12 week old male C57B/6 or CLIP−/− (Invariant Chain deficient) mice (Jackson Labs) using the Miltenyi Biotech B cell isolation kit according to the manufacturer's directions. Cells were incubated with or without CpG-ODN (1 mg/mL SEQ ID NO 9: 5′-[…]-3′, purchased from Invivogen) for 48 hours followed by treatment with 5 μg/mL MKR.4 (5 mg/mL, SEQ ID NO 8: ANS GFR IMA VLA SGG QY). Cells were incubated with MKR.4 for 1 hour and then washed followed by treatment with 2.5 μg/mL anti-MHCII (IA/IE, BD Bioscience). 24 hours after anti-MHCII treatment cells were analyzed for cell death using Acridine Organge/propidium iodide staining measured on the Cellometer (Nexcelom), propidium iodide and foreword Vs. side scatter staining measured on a BD FACS Canto II flow cytometer (BD Bioscience). Data was analyzed using FlowJo software (TreeStar).

Experiment [8] has as its system CRL-5822 cells. Kind of experiment: Viability counts of CRL-5822 cells after LPS, MKR.4 and Anti MHC Class II treatment (Example 1). In kind it is cell-based. As to conditions: LPS 1 ug/mL, MKR.4 2.5 ug/mL, Anti MHC Class II 5 ug/mL, 24 hours after antibody. How it is done: The media was removed from a flask of CRL-5822 using a sterile glass pipet and vacuum and 1.5 mL of accutase was added to the flask and placed in incubator for 20 minutes. The cells were washed with 3 mL of PBS and transferred to a sterile 15 mL conical tube and centrifuged for 5 minutes @ 1000 rpm. The supernatant was removed with sterile glass pipet and vacuum and the pellet resuspended in 5 mL of PBS. A cell count was performed using the TC-10 automated counter and 10 ul of cell suspension+10 ul of trypan blue was loaded into disposable counting slide and put in the TC-10. The following count was made: Live: 3.54*10^4 cells/mL*5 mL=177,000 cells total & 177,000/9 wells (8 wells in experiment+1 to maintain culture)=19,666 cells/well (flask).
The 5 mL of cell suspension was centrifuged for 5′ at 1000 rpm, the pellet was resuspended in 9 mL of 10% FBS RPMI. 1 mL of the cell suspension was added to a T-25 flask that had 4 mL of media in it and placed in the incubator. After culture 1 mL of the cell suspension was added to each well (8 wells in a labeled 24 well plate). A fresh vial of MKR.4 was resuspended in sterile DMSO. 7 mg of peptide was used to make a 5 mg/mL stock (7 mg/mL=5 mg/mL=1.4 mL of DMSO). The peptide was added into 1.4 mL of DMSO, under the hood to maintain sterility. Once all of the peptide was dissolved, 200 ul aliquots were made. […]

For experiment [9], the system named is B cells from C57B/6 mice. The experiment can be described thus: Cell death of B cells isolated from C57B/6 mice (Example 6, FIG. 6A). The experiment is classed as cell-based, mouse. The note with it: C57B/6 B cells stimulated with CpG 48 hours, MKR.4 5 μg/mL 1 hour, anti-MHCII 2.5 μg/mL, 24 hours. The protocol: as §5

On to 5′-tcgtcgttttgtcgttttgtcgtt-3′ [CpG], for which, in experiment [1], the Dead is 0.13*10^6 and the Live was 0.94*10^6. In experiment [2], the “Total Dead” value was “Total Dead: 0.07 *10^6” and the “Total Live” value is reported as “Total Live: 0.35 * 10^6”. Also, in experiment [3], the Dead result was “Dead: 0.40*10^6” and the Live entry is given as “Live: 1.65*10^6”. Besides, in [4], the “Total Dead” value is given as “Total Dead: 0.08 *10^6” and the “Total Live” value is given as “Total Live: 1.25 * 10^6”.

As for `C[C@]12CC[C@@H]3c4ccc(O)cc4CC[C@H]3[C@@H]1CC[C@@H]2O` [B-Estradiol, B-estradiol], in experiment [5], the Dead is recorded as 0.11*10^6 and the Live is 0.50*10^6. For the same molecule, in experiment [6], the Dead is 0.07*10^6 and the Live is given as 0.47*10^6.

Consider “ANS GFR IMA VLA SGG QY (ANSGFRIMAVLASGGQY) [MKR.4]”, for which the Dead is given as 0.038*10^6 in experiment [1] and “Dead: 0.28*10^6” in experiment [3]. In addition, the Live in experiment [1] is given as 0.93*10^6; in experiment [3], “Live: 1.46*10^6”. Further, the “percent change in cell death” value in [7] is on record as “no effect on the cell death caused by the MHC class II antibody”; in [9], “restores the increase in cell death”. Moreover, the “Total Dead” value in experiment [2] is given as “Total Dead: 0.08 *10^6”; in experiment [8] it was “Total Dead: 0.07 *10^6”; in experiment [4], “Total Dead: 0.10 *10^6”. The figures for the “Total Live” value in experiment [2], in experiment [8] and in [4] were “Total Live: 0.24 * 10^6”, “Total Live: 0.32 * 10^6” and “Total Live: 0.44 * 10^6”, respectively.
